Experimental findings from patent US10047051B2, “Substituted pyridines and method of use” (AbbVie S.á{acute over (.)}r.l., priority 2015, dated 2018) are described below.

pEC50: −log10 of the molar value.

Holding throughout (type): cell-based
One assay addresses T1, CFTR-G178R (Homo sapiens, UniProt P13569, G178R).
T1 construct: expressed in transfected cells
The experiment in a line: YFP-halide influx assay for the CFTR-G178R. Summed up:
(§1)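 HEK293 cells reverse-transfected with a CFTR mutant and YFP H148Q/I152L/F47L halide sensor, expressed 24 h at 37° C. Fluorescence quenching followed for 7 s after I⁻ injection; activity expressed as 1−F/F0, with EC50 fitted from 1−F/F0 versus compound concentration.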

Another assay concerns the target T2, CFTR-S549N (Homo sapiens, UniProt P13569, S549N).
T2 construct: expressed in transfected cells
Put plainly: YFP-halide influx assay for the CFTR-S549N. Also on record: % Activation: concentration or dose not given beside the values. Summed up: as §1

The next assay concerns the target T3, CFTR-G1349D (Homo sapiens, UniProt P13569, G1349D).
T3 construct: expressed in transfected cells
The experiment in a line: YFP-halide influx assay for the CFTR-G1349D. Summed up:
as §1

The next assay concerns the target T4, CFTR ΔF508 (Homo sapiens, UniProt P13569, DEL508-508).
T4 construct: host or cells: primary human bronchial epithelial cells from CF patients homozygous for ΔF508, pre-treated with VX809
Put plainly: TECC assay, primary bronchial epithelial cells, CFTR ΔF508. As to conditions: primary bronchial epithelial cells of CF patients homozygous for CFTR ΔF508, treated with 3 μM VX809, increase in Isc after forskolin. Summed up: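 Short-circuit current (Isc) measured by TECC at 37 °C in NaCl-Ringer pH 7.4, using primary bronchial epithelia from ΔF508-homozygous CF patients, differentiated 21 days at air-liquid interface and corrected with 3 μM VX809. Recordings taken after amiloride and forskolin, every 2 min over 20 min, with compound added either acutely or chronically (48 h basolateral/24 h apical). Value is ΔIsc over the DMSO baseline; EC50 from concentration series.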

T1 sequence (P13569 whole entry G178R): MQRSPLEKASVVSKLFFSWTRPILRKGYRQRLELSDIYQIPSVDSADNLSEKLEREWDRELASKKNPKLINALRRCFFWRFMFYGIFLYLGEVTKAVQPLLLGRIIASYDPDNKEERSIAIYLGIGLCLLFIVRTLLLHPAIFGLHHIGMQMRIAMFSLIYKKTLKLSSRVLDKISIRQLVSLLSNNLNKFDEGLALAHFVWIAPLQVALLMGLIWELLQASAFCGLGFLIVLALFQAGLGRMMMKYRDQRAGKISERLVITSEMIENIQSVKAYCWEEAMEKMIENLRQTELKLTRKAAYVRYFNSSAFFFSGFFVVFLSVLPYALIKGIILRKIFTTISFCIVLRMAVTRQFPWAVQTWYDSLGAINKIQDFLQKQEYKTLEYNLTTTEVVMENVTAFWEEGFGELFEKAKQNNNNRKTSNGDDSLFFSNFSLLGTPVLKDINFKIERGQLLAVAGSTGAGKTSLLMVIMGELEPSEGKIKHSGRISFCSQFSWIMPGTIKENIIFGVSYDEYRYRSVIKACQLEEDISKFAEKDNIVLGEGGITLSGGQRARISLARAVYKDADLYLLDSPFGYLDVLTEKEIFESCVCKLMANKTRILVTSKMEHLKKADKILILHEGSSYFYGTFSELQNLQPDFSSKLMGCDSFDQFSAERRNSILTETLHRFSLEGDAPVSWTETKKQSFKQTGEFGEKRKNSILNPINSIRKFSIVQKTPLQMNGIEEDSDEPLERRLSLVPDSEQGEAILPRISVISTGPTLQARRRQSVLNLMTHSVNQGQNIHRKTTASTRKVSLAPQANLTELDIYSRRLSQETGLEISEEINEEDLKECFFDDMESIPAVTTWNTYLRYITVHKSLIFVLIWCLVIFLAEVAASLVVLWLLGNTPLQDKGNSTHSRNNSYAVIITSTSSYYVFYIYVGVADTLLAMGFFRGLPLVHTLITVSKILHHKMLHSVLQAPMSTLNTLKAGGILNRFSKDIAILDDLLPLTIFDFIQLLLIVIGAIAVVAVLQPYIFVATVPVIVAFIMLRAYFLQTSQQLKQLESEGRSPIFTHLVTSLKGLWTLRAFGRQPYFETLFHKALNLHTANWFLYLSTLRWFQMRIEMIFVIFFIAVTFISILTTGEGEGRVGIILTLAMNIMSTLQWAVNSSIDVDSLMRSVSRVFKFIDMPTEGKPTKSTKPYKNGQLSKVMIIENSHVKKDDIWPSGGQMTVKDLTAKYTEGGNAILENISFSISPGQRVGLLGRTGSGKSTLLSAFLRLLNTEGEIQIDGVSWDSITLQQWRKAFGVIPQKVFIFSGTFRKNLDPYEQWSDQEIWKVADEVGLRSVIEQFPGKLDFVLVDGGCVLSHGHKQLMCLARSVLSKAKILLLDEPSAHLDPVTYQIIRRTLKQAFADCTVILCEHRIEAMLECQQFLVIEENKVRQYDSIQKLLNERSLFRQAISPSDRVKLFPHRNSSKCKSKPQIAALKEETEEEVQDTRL
T2 sequence (P13569 whole entry S549N): as the sequence (P13569 whole entry G178R) above, with R178G, S549N counted along it
T3 sequence (P13569 whole entry G1349D): as the sequence (P13569 whole entry G178R) above, with R178G, G1349D counted along it
T4 sequence (P13569 with tags, fused parts or gaps DEL508-508): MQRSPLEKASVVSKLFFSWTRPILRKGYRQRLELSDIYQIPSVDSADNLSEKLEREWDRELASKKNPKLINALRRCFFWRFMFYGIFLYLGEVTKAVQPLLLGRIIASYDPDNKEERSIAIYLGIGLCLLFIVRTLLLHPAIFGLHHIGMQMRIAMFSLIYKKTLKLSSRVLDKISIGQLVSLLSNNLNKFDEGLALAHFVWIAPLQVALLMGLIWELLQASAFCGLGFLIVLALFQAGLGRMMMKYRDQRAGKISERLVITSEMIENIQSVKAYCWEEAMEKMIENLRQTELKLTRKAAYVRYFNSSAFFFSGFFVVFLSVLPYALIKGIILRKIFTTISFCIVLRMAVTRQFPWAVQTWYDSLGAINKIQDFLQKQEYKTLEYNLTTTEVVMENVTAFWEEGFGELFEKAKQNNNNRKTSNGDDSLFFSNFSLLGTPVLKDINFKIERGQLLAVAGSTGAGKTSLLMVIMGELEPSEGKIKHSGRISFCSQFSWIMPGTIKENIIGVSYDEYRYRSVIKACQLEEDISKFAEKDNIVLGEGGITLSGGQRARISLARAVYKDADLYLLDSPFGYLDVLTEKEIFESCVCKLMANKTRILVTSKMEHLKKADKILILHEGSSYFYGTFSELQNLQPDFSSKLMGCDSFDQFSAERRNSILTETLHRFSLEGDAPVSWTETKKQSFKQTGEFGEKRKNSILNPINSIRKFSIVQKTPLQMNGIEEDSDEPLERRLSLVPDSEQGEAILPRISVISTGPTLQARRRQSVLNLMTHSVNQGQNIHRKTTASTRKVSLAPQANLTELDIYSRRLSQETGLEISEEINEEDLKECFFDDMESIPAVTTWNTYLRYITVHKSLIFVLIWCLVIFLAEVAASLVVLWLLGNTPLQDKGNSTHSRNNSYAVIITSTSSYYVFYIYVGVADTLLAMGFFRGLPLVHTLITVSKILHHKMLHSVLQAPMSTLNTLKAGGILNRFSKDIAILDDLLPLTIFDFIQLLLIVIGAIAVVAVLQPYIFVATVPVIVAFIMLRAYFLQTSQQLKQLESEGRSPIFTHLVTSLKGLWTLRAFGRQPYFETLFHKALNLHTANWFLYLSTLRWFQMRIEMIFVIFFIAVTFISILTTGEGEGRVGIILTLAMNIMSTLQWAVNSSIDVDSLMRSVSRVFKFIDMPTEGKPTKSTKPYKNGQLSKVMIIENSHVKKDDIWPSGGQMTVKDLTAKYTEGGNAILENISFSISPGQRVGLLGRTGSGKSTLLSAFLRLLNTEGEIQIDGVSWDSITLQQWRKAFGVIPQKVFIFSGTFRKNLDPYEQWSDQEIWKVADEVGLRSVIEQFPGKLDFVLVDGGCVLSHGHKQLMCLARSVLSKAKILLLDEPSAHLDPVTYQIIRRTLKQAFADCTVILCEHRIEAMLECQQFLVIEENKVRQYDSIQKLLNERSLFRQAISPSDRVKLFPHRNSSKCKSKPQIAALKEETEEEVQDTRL

As to `Nc1cc(S(=O)(=O)c2ccc(F)cc2)cnc1C(=O)NC[C@@H](O)C(F)(F)F` [Compound 36, 3-amino-5-[(4-fluorophenyl)sulfonyl]-N-[(2R)-3,3,3-trifluoro-2-hydroxypropyl]pyridine-2-carboxamide], the “% Activation” value at CFTR-G178R was 79.3%; at CFTR-S549N, 92.9%; on CFTR-G1349D, 82.7%. Also, the pEC50 at CFTR-G178R is 6.64; on CFTR-S549N, 6.53; on CFTR-G1349D, 6.51; at CFTR ΔF508, 7.20.

On to `Nc1cc(S(=O)(=O)c2ccc(OC(F)(F)F)cc2)cnc1C(=O)N1CC(F)(F)C1` [Compound 40, (3-amino-5-{[4-(trifluoromethoxy)phenyl]sulfonyl}pyridin-2-yl)(3,3-difluoroazetidin-1-yl)methanone], for which the “% Activation” value at CFTR-G178R came out at 81.76%; on CFTR-S549N, 84.51%; at CFTR-G1349D it was 84.31%. For the same compound, the pEC50 on CFTR-G178R was 6.41; at CFTR-S549N, 5.92; on CFTR-G1349D, 6.36; at CFTR ΔF508, 7.21.

The term pEC50 denotes −log10 of the EC50, conventionally taken in molar units.
